Test: molar heat capacity at constant pressure; wn = mass fraction of the nth substance listed
Settings: Small (less than 1 g) adiabatic calorimetry

CCCCn1cc[n+](C)c1.[Br-] [1-butyl-3-methylimidazolium bromide] + O
Crystal
Settings	molar heat capacity at constant pressure [J/K/mol]
218.45 K, w2 = 0.00482	179.81
218.58 K, w2 = 0.0495	158.93
218.67 K, w2 = 0.00482	179.82
219.16 K, w2 = 0.0051	180.49
219.16 K, w2 = 0.0169	170.74
219.92 K, w2 = 0.0169	174.79
220.75 K, w2 = 0.00482	181.03
221.08 K, w2 = 0.00482	181.37
221.13 K, w2 = 0.0495	162.83
221.26 K, w2 = 0.0169	172.67
221.69 K, w2 = 0.0051	182.19
221.98 K, w2 = 0.0169	175.21
222.83 K, w2 = 0.00482	182.24
223.35 K, w2 = 0.0169	174.92
223.65 K, w2 = 0.0495	166.27
224.06 K, w2 = 0.0169	176.93
224.22 K, w2 = 0.0051	184.17
224.86 K, w2 = 0.00482	183.19
225.43 K, w2 = 0.0169	177.21
226.12 K, w2 = 0.0169	179.17
226.16 K, w2 = 0.0495	169.5
226.71 K, w2 = 0.00482	184.71
226.73 K, w2 = 0.0051	185.92
227.52 K, w2 = 0.0169	179.5
228.19 K, w2 = 0.0169	181.4
228.65 K, w2 = 0.0495	172.65
228.79 K, w2 = 0.00482	185.77
229.25 K, w2 = 0.0051	187.95
229.6 K, w2 = 0.0169	181.84
229.71 K, w2 = 0.0051	187.47
230.25 K, w2 = 0.0169	183.78
230.87 K, w2 = 0.00482	187.3
231.12 K, w2 = 0.0495	175.4
231.45 K, w2 = 0.0051	188.82
231.69 K, w2 = 0.0169	184.4
231.75 K, w2 = 0.0051	189.69
232.32 K, w2 = 0.0169	185.93
232.95 K, w2 = 0.00482	188.74
233 K, w2 = 0.0051	190.22
233.57 K, w2 = 0.0495	178.39
233.77 K, w2 = 0.0169	186.45
234.38 K, w2 = 0.0169	187.94
234.56 K, w2 = 0.0051	191.21
235.03 K, w2 = 0.00482	190.17
235.85 K, w2 = 0.0169	188.93
236.01 K, w2 = 0.0495	181.58
236.12 K, w2 = 0.0051	192.22
236.45 K, w2 = 0.0169	189.99
237.1 K, w2 = 0.00482	191.7
237.67 K, w2 = 0.0051	193.48
237.94 K, w2 = 0.0169	190.98
238.43 K, w2 = 0.0495	184.7
238.52 K, w2 = 0.0169	191.98
239.18 K, w2 = 0.00482	193.21
239.22 K, w2 = 0.0051	194.65
240.02 K, w2 = 0.0169	193.19
240.19 K, w2 = 0.00482	193.43
240.58 K, w2 = 0.0169	194.1
240.74 K, w2 = 0.0051	195.27
240.77 K, w2 = 0.0051	195.7
240.84 K, w2 = 0.0495	187.48
241.25 K, w2 = 0.00482	195.08
241.57 K, w2 = 0.00482	194.88
242.11 K, w2 = 0.0169	195.39
242.23 K, w2 = 0.0051	196.6
242.33 K, w2 = 0.0051	196.86
242.65 K, w2 = 0.0169	196.25
243.11 K, w2 = 0.00482	195.57
243.23 K, w2 = 0.0495	190.7
243.33 K, w2 = 0.00482	196.58
243.57 K, w2 = 0.0051	197.62
243.88 K, w2 = 0.0051	198.03
244.2 K, w2 = 0.0169	197.53
244.66 K, w2 = 0.00482	197.15
244.72 K, w2 = 0.0169	198.26
244.91 K, w2 = 0.0051	198.42
245.41 K, w2 = 0.00482	198.24
245.43 K, w2 = 0.0051	199.16
245.6 K, w2 = 0.0495	193.88
246.12 K, w2 = 0.00482	197.87
246.21 K, w2 = 0.00482	198.68
246.25 K, w2 = 0.0051	199.47
246.28 K, w2 = 0.0169	199.77
246.78 K, w2 = 0.0169	200.42
246.98 K, w2 = 0.0051	200.29
247.48 K, w2 = 0.00482	199.98
247.59 K, w2 = 0.0051	200.49
247.77 K, w2 = 0.00482	200.2
247.97 K, w2 = 0.0495	197.01
248.37 K, w2 = 0.0169	201.97
248.53 K, w2 = 0.0051	201.44
248.85 K, w2 = 0.0169	202.5
248.93 K, w2 = 0.0051	201.61
249.33 K, w2 = 0.00482	201.33
249.56 K, w2 = 0.00482	201.61
250.07 K, w2 = 0.0051	202.63
250.26 K, w2 = 0.0051	202.66
250.31 K, w2 = 0.0495	200.17
250.45 K, w2 = 0.0169	204.14
250.89 K, w2 = 0.00482	202.59
250.91 K, w2 = 0.0169	204.77
251.6 K, w2 = 0.0051	203.88
251.64 K, w2 = 0.00482	203.37
252.15 K, w2 = 0.0051	204.56
252.45 K, w2 = 0.00482	203.62
252.53 K, w2 = 0.0169	206.36
252.64 K, w2 = 0.0495	203.4
252.93 K, w2 = 0.0051	205.05
252.97 K, w2 = 0.0169	206.96
253.72 K, w2 = 0.00482	205.38
253.96 K, w2 = 0.00482	204.5
254 K, w2 = 0.00482	205.09
254.27 K, w2 = 0.0051	206.08
254.62 K, w2 = 0.0169	208.6
254.74 K, w2 = 0.0051	206.57
254.95 K, w2 = 0.0495	206.71
255.04 K, w2 = 0.0169	209.12
255.56 K, w2 = 0.00482	206.28
255.6 K, w2 = 0.0051	207.19
255.8 K, w2 = 0.00482	206.96
255.99 K, w2 = 0.00482	206.25
256.7 K, w2 = 0.0169	211
256.94 K, w2 = 0.0051	208.23

101 kPa, Liquid
Settings	molar heat capacity at constant pressure [J/K/mol]
220.21 K, w2 = 0.0495	192.42
221.78 K, w2 = 0.00482	273.75
222.3 K, w2 = 0.0495	192.93
223.87 K, w2 = 0.00482	274.35
224.39 K, w2 = 0.0495	193.35
225.97 K, w2 = 0.00482	274.97
226.48 K, w2 = 0.0495	193.78
228.05 K, w2 = 0.00482	275.41
228.57 K, w2 = 0.0495	194.3
230.14 K, w2 = 0.00482	275.97
230.66 K, w2 = 0.0495	194.89
232.23 K, w2 = 0.00482	276.47
232.75 K, w2 = 0.0495	195.6
234.32 K, w2 = 0.00482	276.93
236.41 K, w2 = 0.00482	277.36
238.51 K, w2 = 0.00482	278.01
240.59 K, w2 = 0.00482	278.63
242.68 K, w2 = 0.00482	279.3
244.77 K, w2 = 0.00482	280.02
246.87 K, w2 = 0.00482	280.54
248.96 K, w2 = 0.00482	281.17
256.19 K, w2 = 0.0495	201.27

Source: the NIST ThermoML archive (doi:10.1016/j.jct.2006.05.008)
